Laboratory results taken from patent US12384744B2, “Enzyme-cleavable methadone prodrugs and methods of use thereof” (Ensysce Biosciences Inc., priority 2021, dated 2025).

Test system: trypsin
Test: Digestion with trypsin (trypsin digestion of methadone prodrugs and release of methadone)
Format: biochemical
Procedure: FIG. 6 depicts an example of trypsin digestion of methadone prodrugs according to certain embodiments. All pro-drugs are digested fully within 8-24 h. The pro-drug with 1-methylethyl linker is slightly slower, requiring 24-48 h.

SMILES: CC=C(OC(=O)N(C)C(C)CNC(=O)[C@H](CCCNC(=N)N)NC(=O)c1ccccc1)C(CC(C)N(C)C)(c1ccccc1)c1ccccc1 (stereo partly drawn) [pro-drug with 1-methylethyl linker, 6-(dimethylamino)-4,4-diphenylhept-2-en-3-yl (1-((S)-2-benzamido-5-guanidinopentanamido)propan-2-yl)(methyl)carbamate]
- time until pro-drug is digested fully by trypsin (FIG. 6): 24 to 48 h
- release of methadone from the release intermediate after trypsin digestion (FIG. 6 and FIGS. 7A-7D, result in words): rapid release to methadone
